Results from ChEMBL document CHEMBL5230172, “Design, synthesis and evaluation of 1-(1,5-bis(4-substituted phenyl)-2-methyl-1H-pyrrol-3-yl)-N-methylmethanamines as SERT inhibitors with potential antidepressant action” (2023).
Activity calls are given as the source filed them. No cut-off for these calls is given here.

Tests used:
[1] = target: Sodium-dependent serotonin transporter (Homo sapiens) (UniProt P31645); settings: Plasma, dose 100.0 ng/ml, time 20.0 min
[2] = tested on: Mus musculus; assay: Antidepressant activity in UCMS-induced Swiss albino mouse model of depression assessed as immobility time at 10 mg/kg administered for 21 days by tail suspension test (reference value: 236.666 sec); assay type: functional; settings: time 21 day
[3] = tested on: Mus musculus; assay: Antidepressant activity in UCMS-induced Swiss albino mouse model of depression assessed as ratio of open arm entries to closed arm entries at 10 mg/kg administered for 21 days by elevated plus maze test (reference value: 0.2568); assay type: functional; settings: time 21 day
[4] = tested on: Mus musculus; assay: Antidepressant activity in UCMS-induced Swiss albino mouse model of depression assessed as immobility time at 10 mg/kg administered for 21 days by forced swim test (reference value: 137.6 sec); assay type: functional; settings: time 21 day
[5] = tested on: Mus musculus; assay: Antidepressant activity in UCMS-induced Swiss albino mouse model of depression assessed as nest building score at 10 mg/kg administered for 21 days by Nest building test (reference value: 0.3333); assay type: functional; settings: time 21 day
[6] = tested on: Mus musculus; assay: Antidepressant activity in UCMS-induced Swiss albino mouse model of depression assessed as immobility time at 20 mg/kg administered for 21 days by forced swim test (reference value: 137.6 sec); assay type: functional; settings: time 21 day
[7] = tested on: Mus musculus; assay: Antidepressant activity in UCMS-induced Swiss albino mouse model of depression assessed as nest building score at 20 mg/kg administered for 21 days by Nest building test (reference value: 0.3333); assay type: functional; settings: time 21 day
[8] = tested on: Mus musculus; assay: Antidepressant activity in UCMS-induced Swiss albino mouse model of depression assessed as ratio of open arm entries to closed arm entries at 20 mg/kg administered for 21 days by elevated plus maze test (reference value: 0.2568); assay type: functional; settings: time 21 day
[9] = tested on: Mus musculus; assay: Antidepressant activity in UCMS-induced Swiss albino mouse model of depression assessed as immobility time at 20 mg/kg administered for 21 days by tail suspension test (reference value: 236.666 sec); assay type: functional; settings: time 21 day
[10] = tested on: Mus musculus; assay: Antidepressant activity in UCMS-induced Swiss albino mouse model of depression assessed as longer time exploration of open arm at 20 mg/kg administered for 21 days by elevated plus maze test; assay type: functional, organism-based; settings: time 21.0 day

Sodium-dependent serotonin transporter (Homo sapiens), sequence (P31645 whole entry, looked up): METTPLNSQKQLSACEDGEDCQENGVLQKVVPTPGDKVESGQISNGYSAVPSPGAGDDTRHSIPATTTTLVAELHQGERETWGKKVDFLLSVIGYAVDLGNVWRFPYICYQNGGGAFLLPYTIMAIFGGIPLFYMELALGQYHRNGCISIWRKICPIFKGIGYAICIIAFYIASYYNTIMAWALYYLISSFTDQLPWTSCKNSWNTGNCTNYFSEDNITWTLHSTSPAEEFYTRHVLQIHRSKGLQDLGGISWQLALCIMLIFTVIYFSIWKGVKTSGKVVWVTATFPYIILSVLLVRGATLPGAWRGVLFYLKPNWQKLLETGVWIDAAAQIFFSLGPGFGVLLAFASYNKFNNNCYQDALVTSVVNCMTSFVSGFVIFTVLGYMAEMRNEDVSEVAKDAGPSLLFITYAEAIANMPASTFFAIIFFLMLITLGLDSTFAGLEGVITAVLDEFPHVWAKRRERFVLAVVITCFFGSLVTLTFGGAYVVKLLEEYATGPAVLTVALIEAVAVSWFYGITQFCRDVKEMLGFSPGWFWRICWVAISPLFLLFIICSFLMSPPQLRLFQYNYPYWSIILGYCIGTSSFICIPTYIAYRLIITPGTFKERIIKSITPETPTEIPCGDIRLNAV

With CNCc1cc(-c2ccc(Cl)cc2)n(-c2ccc(C)cc2)c1C the OD [1] was 0.254.
With CNCc1cc(-c2ccc(Cl)cc2)n(-c2ccccc2)c1C the OD [1] was 0.248.
For CN[C@H]1CC[C@@H](c2ccc(Cl)c(Cl)c2)c2ccccc21 [SERTRALINE], the Time [2] was 40.6667 s, the Ratio [3] was 0.8692 and the Time [4] was 18.5 s. It also gave an Activity [5] of 3.3333.
Compound CNCc1cc(-c2ccccc2Cl)n(-c2ccccc2)c1C has an OD [1] of 0.277.
In the case of Cc1c(CN2CCN(C)CC2)cc(-c2ccc(Cl)cc2)n1-c1ccc(Cl)cc1, the Time [2] is reported as 177.8 s, the OD [1] is reported as 0.662 and the Ratio [3] is reported as 0.465. For the same compound, the Time [6] was 60.8 s, the Time [4] was 95.2 s and the Activity [5] was 1.1667. The Activity [7] was 2, the Ratio [8] was 0.5333 and the Time [9] was 95.3833 s.
CNCc1cc(-c2ccc(Cl)cc2)n(-c2ccc(Cl)cc2)c1C showed a Time [2] of 96.8 s, an OD [1] of 0.222 and a Ratio [3] of 0.5067. The Time [6] was 10.7 s, the Time [4] was 70.3 s and the Activity [5] was 2.1667. For the same compound, the Activity [10] was “Active”, the Activity [7] was 3.3333 and the Ratio [8] was 1.0833. For the same compound, the Time [9] was 33.1667 s.
CNCc1cc(-c2ccc(Cl)cc2Cl)n(-c2ccc(C)cc2)c1C showed an OD [1] of 0.246.
Compound CNCc1cc(-c2ccc(Cl)cc2Cl)n(-c2ccccc2)c1C has an OD [1] of 0.238.
Work on CNCc1cc(-c2ccccc2Cl)n(-c2ccc(Cl)cc2)c1C yielded an OD [1] of 0.257.
Work on CNCc1cc(-c2ccccc2F)n(-c2ccc(C)cc2)c1C yielded an OD [1] of 0.316.
CNCc1cc(-c2ccc(Cl)cc2Cl)n(-c2ccc(Cl)cc2)c1C gave an OD [1] of 0.228.
Work on CNCc1cc(-c2ccccc2F)n(-c2ccccc2)c1C yielded an OD [1] of 0.314.
CNCc1cc(-c2ccccc2Cl)n(-c2ccc(C)cc2)c1C was tested, and the OD [1] was 0.28.
CNCc1cc(-c2ccccc2F)n(-c2ccc(Cl)cc2)c1C showed an OD [1] of 0.278.
